Reference: US20100239669A1, “Combinations of statins and anti-obesity agent” (Scidose LLC, priority 2007, published 2010)

Assay: Patient on atorvastatin with orlistat added (co-therapy)
Format: in vivo, human
Protocol: A patient on atorvastatin 80 mg once daily is found to still be in need of reducing weight, triglyceride, and cholesterol levels further. […] The patient is maintained on this regimen for 2 months and thereafter the atorvastatin dosage is reduced to 60 mg once daily at which the reductions previously obtained are maintained. The patient is then switched to a fixed combination dosage form of 120 mg orlistat and 60 mg atorvastatin once daily. A patient on atorvastatin 10 mg once daily is found to be in need of weight reduction and triglyceride reduction, although cholesterol levels are adequately maintained by the atorvastatin. Orlistat 120 mg once daily is added to the regimen and each of weight, triglycerides and cholesterol drop. […] The patient is then changed to a fixed combination of 120 mg orlistat and 5 mg of atorvastatin.

CCCCCCCCCCC[C@@H](C[C@@H]1OC(=O)[C@H]1CCCCCC)OC(=O)[C@H](CC(C)C)NC=O [orlistat, N-formyl-L-leucine ester of (3S,4S)-3-hexyl-4-[(2S)-2-hydroxytridecyl]-2-oxetanone]
weight, serum triglycerides, and cholesterol (Example 1: 120 mg once daily orlistat added to atorvastatin 80 mg once daily): begins to lower
reductions previously obtained (weight, triglycerides, cholesterol) (Example 1: after 2 months atorvastatin reduced to 60 mg once daily, orlistat 120 mg once daily): maintained
lowered weight, triglycerides, and cholesterol levels (Example 2: after 6 weeks, 120 mg orlistat once daily and 5 mg atorvastatin once daily): surprisingly maintains
weight, triglycerides and cholesterol (Example 2: orlistat 120 mg once daily added to atorvastatin 10 mg once daily): drop
